Data: patent US20060009805A1, “Neural stimulation device employing renewable chemical stimulation” (priority 2004, published 2006)

Legend:
[1] = cited from earlier work
[2] = system: rabbit retinal ganglion cells; experiment: Single cell recordings from axons of retinal ganglion cells stimulated by focal ejection of K+ (KCl) from a micropipette; format: cell-based
Experimental: Single cell recordings were made from the axons of rabbit retinal ganglion cells in vitro. Data was recorded and analyzed using Spike2 (Cambridge Electronic Design). The ganglion cells were stimulated over the optical receptive field with a multibarrel micropipette (7-barrel, FHC, Inc.) which contained various concentrations of KCl (0-30 mM in an osmotically balanced NaCl solution (˜300 mOsm). The micropipette solutions were ejected by using a mulitchannel pressure ejector (PM8000, MDI Systems). All solutions contained Azure B (0.5 mg/ml) to enable visualization of the solution being ejected. Pulse durations of 20-100 msecs were used.
Response is shown for a cell stimulated with a 20 msec pulse of 10 mM K^+, pressure of 40 p.s.i. and a volume of approximately 100 pL. […] A modest increase (10 mM) in K^+ concentration increases the spike count from 35 to 80 spikes. Further increases in concentration to 15 mM and 30 mM increases the spike rate to 240 and 272 spikes, respectively. […] The histograms are summed responses from 10 trials as indicated by the raster plot.
Data was collected from 5 cells and the total spike count was obtained from the PSTH. The spontaneous activity (control record) was subtracted, divided by the number of repetitions and the median is plotted. The error bars shown are the standard deviations normalized by the median.
The large secondary lobe in the potassium response may be due to the fluid flow pattern that may have stimulated adjacent cells. Overall receptive field size is […] for a light evoked response.

SMILES | pKa [1] | overall receptive field size, potassium evoked response ([2]; 30 mM [K+]) [µm] | receptive field size, primary lobe, potassium evoked response ([2]; 30 mM [K+]) [µm] | increase in background K+ concentration sufficient to excite the firing of an action potential by retinal ganglion cells ([2]; rabbit retina, in vitro) [mM] | spike count (PSTH, summed responses from 10 trials) ([2]; representative cell, 10 mM K+, count without K+ increase 35) [spikes] | spike count (PSTH, summed responses from 10 trials; given as spike rate) ([2]; representative cell, 15 mM K+) [spikes] | spike count (PSTH, summed responses from 10 trials; given as spike rate) ([2]; representative cell, 30 mM K+) [spikes]
O=C(O)[C@H](O)[C@@H](O)[C@H](O)[C@H](O)CO [Gluconic acid, gluconic acid] | ~3.6 |  |  |  |  |  | 
[K+] [K^+] |  | 400 | 100 | ~10 | 80 | 240 | 272
